Data from DBAASP.
Converted amounts (≈) assume the structure as drawn. Each block holds one molecule with its values, some of them ahead of it.

Legend:
Test in all cases: ≥ marks a high value that may be exact or a test limit, other limits are often not marked, values filed in µg/mL are converted to µM
[1] = test system: Pseudomonas aeruginosa IS350#
[2] = test system: Pseudomonas aeruginosa CMCCB 1010
[3] = test system: Candida albicans ATCC 90028
Escherichia coli IS37# = test system: Escherichia coli IS37#
Escherichia coli IS117# = test system: Escherichia coli IS117#
[4] = test system: Candida albicans ATCC 2002
[5] = test system: Pseudomonas aeruginosa ATCC 27853
[6] = test system: Candida parapsilosis ATCC 22019
Shigella dysenteriae = test system: Shigella dysenteriae
[7] = test system: Klebsiella pneumoniae ATCC 700603
[8] = test system: Enterococcus faecalis ATCC 29212
[9] = test system: Staphylococcus aureus ATCC 25923
Escherichia coli IS218# = test system: Escherichia coli IS218#
[10] = test system: Enterobacter cloacae ATCC 13047
[11] = test system: Escherichia coli ATCC 25922
[12] = test system: Cronobacter sakazakii DSM 4485
[13] = test system: Staphylococcus aureus SA113
[14] = test system: Staphylococcus aureus RN4220
[15] = test system: Staphylococcus aureus Newman
[16] = test system: Klebsiella pneumoniae NCIMB 13218
[17] = test system: Cronobacter muytjensii ATCC 51329
[18] = test system: Escherichia coli NCIMB 11843
[19] = test system: Cronobacter sakazakii ATCC BAA-894
[20] = test system: Cronobacter sakazakii DPC 6440
[21] = test system: Pseudomonas fluorescens NCIMB 9046
[22] = test system: Staphylococcus aureus RF122
[23] = test system: Salmonella enterica subsp. enterica serovar Typhimurium LT2
[24] = test system: Staphylococcus aureus NCTC 8325-4
[25] = test system: Erwinia amylovora PMV 6076
[26] = test system: Xanthomonas campestris pv. Vesicatoria 2133-2
[27] = test system: Pseudomonas syringae pv. syringae EPS 94
[28] = test system: Pseudomonas aeruginosa PAO1
[29] = test system: Pseudomonas aeruginosa Ps4
[30] = test system: Pseudomonas aeruginosa PAOLC1-6
[31] = test system: Pseudomonas aeruginosa TNP004
[32] = test system: Pseudomonas aeruginosa Ps2
[33] = test system: Pseudomonas aeruginosa Ps1
[34] = test system: Pseudomonas aeruginosa Ps71
[35] = test system: Pseudomonas aeruginosa Ps74
[36] = test system: Pseudomonas aeruginosa Ps21
[37] = test system: Pseudomonas aeruginosa Ps6
[38] = test system: Pseudomonas aeruginosa Ps64
Escherichia coli DC2 = test system: Escherichia coli DC2
Staphylococcus aureus = test system: Staphylococcus aureus
Escherichia coli K-12 = test system: Escherichia coli K-12
[39] = test system: Staphylococcus aureus UAMS-1
Bacillus subtilis = test system: Bacillus subtilis
Escherichia coli W160-37 = test system: Escherichia coli W160-37
[40] = test system: Pseudomonas putida NCIM 2102
[41] = test system: Staphylococcus aureus PEP 4/3

Compound: CC[C@H](C)[C@@H]1NC(=O)[C@H](C)NC(=O)[C@@H](NC(=O)[C@H](Cc2ccccc2)NC(=O)[C@@H](NC(=O)[C@@H](NC(=O)[C@@H]2CCCN2C(=O)[C@@H](NC(=O)[C@@H](NC(=O)[C@H](CCCCN)NC(=O)CNC(=O)[C@H](CO)NC(=O)[C@@H](NC(=O)[C@H](CS)NC(=O)[C@H](CCC(=O)O)NC(=O)[C@H](CC(C)C)NC(=O)CNC(=O)[C@@H]2CCCN2C(=O)[C@H](CC(C)C)NC(=O)[C@@H](N)Cc2ccccc2)C(C)C)[C@@H](C)CC)C(C)C)[C@@H](C)O)C(C)C)CSSC[C@@H](C(=O)O)NC(=O)[C@H]([C@@H](C)CC)NC(=O)[C@H](CCCN=C(N)N)NC(=O)[C@H]([C@@H](C)O)NC1=O [FLPGLECVSGKIVPTVFCAITRIC]
MIC [1]: 7.79 µM (≈ 20 µg/mL)
MIC [2]: 1.95 µM (≈ 5 µg/mL)
MIC [3]: 3.9 µM (≈ 9.99 µg/mL)
MIC (Escherichia coli IS37#): 7.79 µM (≈ 20 µg/mL)
MIC (Escherichia coli IS117#): 3.9 µM (≈ 9.99 µg/mL)
MIC [4]: 1.95 µM (≈ 5 µg/mL)
MIC [5]: 7.79 µM (≈ 20 µg/mL)
MIC [6]: 3.9 µM (≈ 9.99 µg/mL)
MIC (Shigella dysenteriae): 3.9 µM (≈ 9.99 µg/mL)
MIC [7]: 1.95 µM (≈ 5 µg/mL)
MIC [8]: 3.9 µM (≈ 9.99 µg/mL)
MIC [9]: 1.95 µM (≈ 5 µg/mL)
MIC (Escherichia coli IS218#): 7.79 µM (≈ 20 µg/mL)
MIC [10]: 3.9 µM (≈ 9.99 µg/mL)
MIC [11]: 0.974 µM (≈ 2.5 µg/mL)

Compound: CC[C@H](C)[C@H](NC(=O)[C@@H](N)C(C)C)C(=O)N[C@@H](CC(N)=O)C(=O)N[C@@H](CCC(=O)O)C(=O)N[C@@H](CC(N)=O)C(=O)N[C@@H](CC(C)C)C(=O)N[C@@H](CC(C)C)C(=O)N[C@@H](CCCN=C(N)N)C(=O)O [VINENLLR]
MIC [12]: ≥ 1250 µM
MIC [13]: ≥ 1250 µM
MIC [14]: ≥ 1250 µM
MIC [15]: ≥ 1250 µM
MIC [16]: ≥ 2500 µM
MIC [17]: ≥ 1250 µM
MIC [18]: ≥ 2500 µM
MIC [19]: ≥ 1250 µM
MIC [20]: ≥ 1250 µM
MIC [21]: ≥ 2500 µM
MIC [22]: ≥ 1250 µM
MIC [23]: ≥ 2500 µM
MIC [24]: ≥ 625 µM

Compound: NC(=O)[C@H](CCCN=C(N)N)NC(=O)[C@H](CCCN=C(N)N)NC(=O)[C@H](Cc1c[nH]c2ccccc12)NC(=O)[C@H](Cc1ccccc1)NC(=O)[C@H](CCCN=C(N)N)NC(=O)[C@H](CCCN=C(N)N)NC(=O)[C@H](Cc1c[nH]c2ccccc12)NC(=O)[C@@H](N)Cc1ccccc1 [FWRRFWRR]
MIC [28]: 34.3 µM (≈ 44.9 µg/mL)
MIC [29]: ≥ 47.7 µM
MIC [30]: ≥ 34.3 µM
MIC [31]: ≥ 34.3 µM
MIC [32]: ≥ 135 µM
MIC [33]: ≥ 34.3 µM
MIC [34]: ≥ 34.3 µM
MIC [35]: ≥ 135 µM
MIC [36]: ≥ 135 µM
MIC [37]: ≥ 34.3 µM
MIC [38]: ≥ 135 µM

Compound: CC[C@H](C)[C@H](NC(=O)[C@H](Cc1c[nH]c2ccccc12)NC(=O)[C@H](CCCCN)NC(=O)[C@H](CO)NC(=O)[C@H](CC(C)C)NC(=O)[C@H](Cc1ccccc1)NC(=O)[C@@H](NC(=O)[C@H](CCC(=O)O)NC(=O)[C@H](CC(C)C)NC(=O)[C@H](CC(C)C)NC(=O)[C@H](CCCCN)NC(=O)[C@@H]1CCCN1C(=O)[C@H](CC(N)=O)NC(=O)[C@H](C)NC(=O)[C@H](CC(C)C)NC(=O)[C@H](CCCN=C(N)N)NC(=O)[C@H](CC(N)=O)NC(=O)[C@H](C)NC(=O)[C@H](CC(C)C)NC(=O)[C@H](CCCCN)NC(=O)[C@H](C)NC(=O)[C@H](Cc1ccc(O)cc1)NC(=O)[C@H](CCCN=C(N)N)NC(=O)[C@H](CO)NC(=O)[C@H](CC(C)C)NC(=O)[C@@H](N)CO)[C@@H](C)O)C(=O)NCC(=O)O [SLSRYAKLANRLANPKLLETFLSKWIG]
MIC (Bacillus subtilis): 4.58 µM (≈ 14.1 µg/mL)
MIC (Escherichia coli W160-37): 4.58 µM (≈ 14.1 µg/mL)
MIC [40]: 17.7 µM (≈ 54.8 µg/mL)
MIC [41]: 14.5 µM (≈ 44.7 µg/mL)

Next, values leading:

MIC [25]: 14.1 µM (≈ 40 µg/mL)
MIC [26]: 1.77 µM (≈ 5 µg/mL)
MIC [27]: 6.12 µM (≈ 17.3 µg/mL)
Compound: CC[C@H](C)[C@H](NC(=O)[C@H](CCCCN)NC(=O)[C@H](CCCCN)NC(=O)[C@H](Cc1ccccc1)NC(=O)[C@H](CC(C)C)NC(=O)[C@H](CCCCN)NC(=O)[C@H](CCCCN)NC(=O)[C@H](CC(C)C)NC(=O)[C@H](Cc1ccc(O)cc1)NC(=O)[C@H](CCCCN)NC(=O)[C@H](CC(C)C)NC(=O)[C@@H](NC(=O)[C@H](CCCCN)NC(=O)[C@H](CCCCN)NC(=O)[C@H](Cc1ccccc1)NC(=O)[C@H](CC(C)C)NC(=O)[C@H](CCCCN)NC(=O)[C@@H](N)CCCCN)[C@@H](C)CC)C(=O)N[C@@H](CC(C)C)C(=O)N[C@@H](CCCCN)C(=O)N[C@@H](Cc1ccc(O)cc1)C(=O)N[C@@H](CC(C)C)C(=O)O [KKLFKKILKYLKKLFKKILKYL]

MIC (Escherichia coli DC2): 9 µM (≈ 25.3 µg/mL)
MIC (Staphylococcus aureus): > 24 µM
MIC (Escherichia coli K-12): ≥ 80 µM
MIC [39]: ≥ 160 µM
Compound: CC[C@H](C)[C@H](NC(=O)[C@H](CCCCN)NC(=O)[C@H](CCC(=O)O)NC(=O)[C@H](CCCCN)NC(=O)[C@H](C)NC(=O)[C@H](CCCCN)NC(=O)[C@H](CCCN=C(N)N)NC(=O)[C@H](Cc1ccccc1)NC(=O)[C@H](Cc1ccccc1)NC(=O)[C@H](CC(=O)O)NC(=O)CNC(=O)[C@H](CC(C)C)NC(=O)[C@@H](N)CC(C)C)C(=O)NCC(=O)N[C@@H](CCCCN)C(=O)N[C@@H](CCC(=O)O)C(=O)N[C@@H](Cc1ccccc1)C(=O)N[C@@H](CCCCN)C(=O)N[C@@H](CCCN=C(N)N)C(=O)N[C@H](C(=O)N[C@H](C(=O)N[C@@H](CCC(N)=O)C(=O)N[C@@H](CCCN=C(N)N)C(=O)O)C(C)C)[C@@H](C)CC [LLGDFFRKAKEKIGKEFKRIVQR]
